From patent US9527876B2, “Prodrugs of bicyclic substituted pyrimidine type PDE-5 inhibitors” (Xuanzhu Pharma Co., Ltd., priority 2013, dated 2016)
pIC50: −log10 of the molar value. Values after ≈ are worked out from the molar mass of the structure shown. Read-outs that look alike come from different tables or passages of the source.

Legend:
[1] = Rat pharmacokinetics after intragastric administration (LC-MS/MS of plasma); type: in vivo, rats; details: for F: rats, intragastric, absolute bioavailability
Excerpt: Instrument and equipment: API4000 LC-MS/MS

PDE-5 = target: T1, PDE-5 (Homo sapiens, UniProt O76074); test: Scintillation counter (Topcount) PDE-5 enzyme assay; type: biochemical
T1 construct: PDE-5 source, human platelets; from tissue; host or cells: human platelets

[2] = rat, in vivo, iv, 1 mg/kg
Procedure: (§1) Chromatographic column: Agilent XDBC18(2.1×50 mm, 5 μm)
(§2) Rat blood collection: animal was fixed, heated at tail with water-bath 10 min before each time point, about 200 μL of blood was collected from caudal vein, and the collected blood was placed in anticoagulative tube containing heparin sodium. Blood sample was centrifuged under 8000 rpm at 4° C. for 6 min to obtain plasma sample, and the plasma must be prepared within 30 min after blood collection. The plasma was stored in −80° C. refrigerator before test.
(§3) Experimental Method • 1) Take a sample to be tested from refrigerator (−80° C.), melt in situ at room temperature, then eddy for 5 min; • 2) Precisely move 20 μL of sample into 1.5 mL centrifuge tube; • 3) Add 200 μL of internal standard solution; • 4) Eddy for 3 min, then centrifuge for 5 min (12000 rpm); • 5) Precisely move 50 μL of supernatant and add into 150 μL of water, eddy for 3 min, and load to LC-MS/MS for analysis.
(§4) Test sample (plasma sample) concentrations were output by using Analyst 1.5.1 of AB Company. […] Mean values, standard deviation and variable coefficient (those directly outputed by Analyst 1.5.1 were not calculated), were calculated by Microsoft Excel. PK parameter was calculated by using software Pharsight Phoenix 6.2.
(§5) Wherein T1/2 represents half-life period; AUCinf represents area under drug-time curve 0→∞; CL represents clearance rate; Vss represents apparent volume of distribution; Cmax represents peak concentration of the compound in plasma; Tmax represents the time at which the compound reached the peak concentration; F % represents absolute bioavailability.

[3] = in vivo, background statement; cited from earlier work
in vivo = details: rat, iv, 2 mg/kg
Procedure: as §1, §2, §3, §4, §5

[4] = Solubility of Compound 1 in buffer solutions of different pH (visual observation); type: physicochemical; details: for solubility at 5 min: aqueous buffer, thermodynamic from solid
Procedure: 1. Method for preparing sample of Compound 1, 6 parts of test sample were precisely weighed, each was 2 mg and was separately added to 40 μL of buffer solutions of pH 4, pH 5, pH 6, pH 7, pH 8, pH 9, respectively. Jolted (ultrasonic treatment for 5 min) and detected by visual observation.
1.02 g of potassium hydrogen phthalate was weighed, added to 0.05 mL of 0.2 mol/L hydrochloric acid solution and an appropriate amount of water for dissolution, diluted by adding water to 100 mL, mixed homogeneously to obtain the subject solution.
1.02 g of potassium hydrogen phthalate was weighed, added to 11.3 mL of 0.2 mol/L sodium hydroxide solution and an appropriate amount of water for dissolution, diluted by adding water to 100 mL, mixed homogeneously to obtain the subject solution.
0.68 g of potassium dihydric phosphate was weighed, added to 2.8 mL of 0.2 mol/L sodium hydroxide solution and an appropriate amount of water for dissolution, diluted by adding water to 100 mL, mixed homogeneously to obtain the subject solution.
0.68 g of potassium dihydric phosphate was weighed, added to 14.55 mL of 0.2 mol/L sodium hydroxide solution and an appropriate amount of water for dissolution, diluted by adding water to 100 mL, mixed homogeneously to obtain the subject solution.
0.75 g of potassium chloride and 0.62 g of boric acid were weighed, added to 3.9 mL of 0.2 mol/L sodium hydroxide solution and an appropriate amount of water for dissolution, diluted by adding water to 200 mL, mixed homogeneously to obtain the subject solution.
0.75 g of potassium chloride and 0.62 g of boric acid were weighed, added to 20.8 mL of 0.2 mol/L sodium hydroxide solution and an appropriate amount of water for dissolution, diluted by adding water to 200 mL, mixed homogeneously to obtain the subject solution.

[5] = Rat pharmacokinetics after intravenous injection (LC-MS/MS of plasma); details: for concentration at 0.083 h: 1 mg/kg, Concentration of Compound 1 in rat body
Procedure: as §1, §2, §3, §4, §5

[6] = Solubility in ultrapure water (visual observation); type: physicochemical
Procedure: Method for preparing samples of Compounds 4, 4-A, Compounds 9, and 9-B: 2 mg of test sample was taken, gradually added to ultrapure water, treated with ultrasound for 5 min each time until the sample was completely dissolved by visional observation.

[7] = Solubility of Compound Q in buffer solutions of different pH (HPLC); type: physicochemical; details: aqueous buffer, thermodynamic from solid, 1 mg in 1 mL, read-out: Measured concentration (solubility)
Procedure: 2. Method for preparing sample of Compound Q, 4 parts of test sample were precisely weighed, each was 1 mg and was separately added to 1 mL of buffer solutions of pH 3, pH 5, pH 7, pH 9, treated with ultrasound for 5 min and filtered through 0.45 μm organic filtration membrane. The filter liquors were used as test sample solutions. 10 μL of each was injected into high performance liquid chromatograph, and peak areas were recorded.
4.88 mg of test sample was precisely weighed, placed in 10 mL volumetric flask, added to 1 mL of methanol for dissolution, then diluted with methanol to constant volume to obtain a solution containing 0.488 mg of control per 1 mL, which was used as mother liquor A. The mother liquor A was gradually diluted with methanol to obtain control solutions containing 0.0488 mg or 0.00976 mg per 1 mL.
Linear regression was performed by using control concentration (C) as abscissa, and peak area (Y) as ordinate so as to obtain a linear equation. The concentrations of test sample solutions were obtained by putting the peak areas of test sample solutions into the linear equation.
The control linear equation of Compound Q is: Y=24262C, correlation coefficient r=1.0000.
Instrument and equipment: Agilent 1200 HPLC
Chromatography column: YMC-Pack-Pro C18(150×4.6 mm, 5 μm)
Buffer solution: 0.02 mol/L ammonium dihydrogen phosphate (added 0.2% triethylamine, and regulated with phosphoric acid to pH=6.0)
Phase A: acetonitrile-buffer solution=[…], Phase B: acetonitrile-buffer solution=80:20
Mobile phase: Phase A: Phase B=65:35
Detection wavelength: 254 nm Sample size: 10 μL

[8] = in human, background statement; cited from earlier work

SMILES: COc1ccc(CN=c2[nH]c(N3CCC[C@H]3CO)ncc2C(=O)NCc2ncccn2)cc1Cl [Avanafil]
- F ([1]; dose 2 mg/kg (Table 5)): 4.5%
- pIC50 (PDE-5): 8.51
- AUCinf [2]: 382 ng·h/mL
- T1/2 [2]: 30 min
- half-life [3]: about 1.2 h
- Vd (in vivo): 3.56 L/kg
- clearance (in vivo): 88.5 mL/min/kg

SMILES: COc1ccc(CNc2nc(N3CC4CC4C3)ncc2C(=O)N[C@H]2CC[C@H](OP(=O)([O-])[O-])CC2)cc1Cl.[Na+].[Na+] (stereo partly drawn) [Compound 1, N-trans-4-(2-(3-azabicyclo[3.1.0]hexan-3-yl)-4-(3-chloro-4-methoxybenzylamino)pyrimidine-5-carboxamido)cyclohexyl phosphate disodium salt]
- Plasma detection of Compound 1 at each time point ([1]; after intragastric administration (PO), LC-MS/MS): not detected
- solubility at 5 min ([4]; buffer solution pH 5, 2 mg in 40 μL): ≥ 50000 µg/mL
- solubility at 5 min ([4]; buffer solution pH 6, 2 mg in 40 μL): ≥ 50000 µg/mL
- solubility at 5 min ([4]; buffer solution pH 7, 2 mg in 40 μL): ≥ 50000 µg/mL
- solubility at 5 min ([4]; buffer solution pH 8, 2 mg in 40 μL): ≥ 50000 µg/mL
- solubility at 5 min ([4]; buffer solution pH 9, 2 mg in 40 μL): ≥ 50000 µg/mL
- Solubility, in words ([4]; buffer solution pH 4, compared with pH 5 to 9): decreased
- Phenomenon on dissolution ([4]; buffer solution pH 4, 2 mg in 40 μL): precipitated after about 5 min
- Plasma detection of Compound 1 at all other time points ([5]; after IV injection, time points other than 0.083 h, LC-MS/MS): could not be detected
- concentration at 0.083 h ([5]; rat, plasma, iv, Mean, IV 1 mg/kg, mean of 3 rats): 165 ng/mL
- concentration at 0.083 h ([5]; rat, plasma, iv, Rat 1, IV 1 mg/kg, Rat 1): 162 ng/mL
- concentration at 0.083 h ([5]; rat, plasma, iv, Rat 2, IV 1 mg/kg, Rat 2): 183 ng/mL
- concentration at 0.083 h ([5]; rat, plasma, iv, Rat 3, IV 1 mg/kg, Rat 3): 151 ng/mL
- Time of conversion of prodrug Compound 1 into Compound Q ([5]; rats, after IV injection): ≤ 0.083 h

SMILES: COc1ccc(CNc2nc(N3CCC4(CC4)C3)ncc2C(=O)N[C@H]2CC[C@H](OP(=O)([O-])[O-])CC2)cc1Cl.[Na+].[Na+] [Compound 4, N-trans-4-(4-((3-chloro-4-methoxybenzyl)amino)-2-(5-azaspiro[2.4]heptan-5-yl)pyrimidine-5-carboxamido)cyclohexyl phosphate disodium salt]
- Solubility in water relative to original drug Compound 4-A [6]: 2000 times
- solubility at 5 min ([6]; thermodynamic from solid, ultrasound 5 min): ≥ 200000 µg/mL

SMILES: COc1ccc(CNc2nc(N3CC4CC4C3)ncc2C(=O)N[C@H]2CC[C@H](O)CC2)cc1C (stereo partly drawn) [Compound 9-B, 2-(3-azabicyclo[3.1.0]hexan-3-yl)-N-(trans-4-hydroxycyclohexyl)-4-(4-methoxy-3-methylbenzylamino)pyrimidine-5-carboxamide]
- F ([1]; dose 5 mg/kg (Table 5)): 65%
- Vd ([5]; rat, plasma, iv, 2 mg/kg): 4.48 L/kg
- clearance ([5]; rat, plasma, iv, 2 mg/kg): 13 mL/min/kg

SMILES: COc1ccc(CNc2nc(N3CC4CC4C3)ncc2C(=O)N[C@H]2CC[C@H](O)CC2)cc1Cl (stereo partly drawn) [Compound Q, 2-(3-azabicyclo[3.1.0]hexan-3-yl)-4-(3-chloro-4-methoxybenzylamino)-N-(trans-4-hydroxycyclohexyl)pyrimidine-5-carboxamide]
- solubility at 5 min ([7]; buffer solution pH 3): 371 µg/mL (≈ 786 µM)
- solubility at 5 min ([7]; buffer solution pH 5): 0.276 µg/mL (≈ 0.585 µM)
- solubility at 5 min ([7]; buffer solution pH 7): 0.124 µg/mL (≈ 0.263 µM)
- solubility at 5 min ([7]; buffer solution pH 9): 0.128 µg/mL (≈ 0.271 µM)

SMILES: CN1CC(=O)N2[C@H](c3ccc4c(c3)OCO4)c3[nH]c4ccccc4c3C[C@@H]2C1=O [Tadalafil]
- half-life [8]: about 16 h
